This is an account of results in patent US6410585B1, “Inhibitors of protein tyrosine phosphatase” (priority 1997, dated 2002).

Broadly, the Ki is the dissociation constant of the complex between target and ligand, obtained from inhibition or displacement.

In this assay the target is T1, rat PTP1 (Rattus norvegicus, UniProt P20417).
T1 construct: a C-terminal truncation of rat PTP1 (amino acid residues 1-322); GST (N, cleaved yes); made in house; host or cells: E. coli strain TG-1 (pGEX-2T)
T1 sequence (P20417 1-322): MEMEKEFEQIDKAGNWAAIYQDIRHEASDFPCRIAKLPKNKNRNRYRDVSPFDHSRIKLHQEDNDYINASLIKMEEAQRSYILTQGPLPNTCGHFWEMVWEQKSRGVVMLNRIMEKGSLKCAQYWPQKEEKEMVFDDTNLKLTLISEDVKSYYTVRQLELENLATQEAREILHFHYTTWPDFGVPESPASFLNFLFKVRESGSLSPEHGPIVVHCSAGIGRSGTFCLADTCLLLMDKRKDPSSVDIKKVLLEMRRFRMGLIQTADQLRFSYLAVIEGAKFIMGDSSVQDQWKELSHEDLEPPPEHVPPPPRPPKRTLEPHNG
Nature of the assay: PTP1 assay, pNPP hydrolysis (rate of change in A405). The class given is biochemical. The source says:
PTP1 Assays: A construct, which consisted of a C-terminal truncation of rat PTP1 (amino acid residues 1-322) (cloned from a rat brain library) with an N-terminal glutathione S-transferase (GST) tag and an adjacent thrombin cleavage site, was inserted into vector plasmid pGEX-2T and transformed into E. coli strain TG-1 under the control of a lac promoter (K. L. Guan and J. E. Dixon (1991) Eukaryotic proteins expressed in Escherichia coli: an improved thrombin cleavage and purification procedure of fusion proteins with glutathione S-transferase. Analyt. Biochem. 192: 262-267). The GST-fusion protein was purified on a glutathione agarose affinity column, the GST tag was cleaved with thrombin, and the active enzyme was recovered for use in an assay to identify PTP inhibitors.
PTP1 activity is measured using either p-nitrophenol phosphate (pNPP) or a triphosphopeptide (that matches residues 1142 through 1153 of the β-subunit and the insulin receptor) as substrate in a 96-well microtiter plate format. An assay pH of 7.2 is used for standard assays (measured 405=9800 at pH 7.2).
Standard assays are conducted at room temperature in a total volume of 0.2 ml that contains Hepes buffer (50 mM, pH 7.2), NaCl (50 mM), EDTA (1 mM), DTT (1 mM), bovine serum albumin (1 mg/ml), pNPP (1 mM) and PTP1 (35 ng/ml). Compounds (2 μl of 10 mM solutions) are pipetted into wells of microtiter plates followed by 198 μl of premixed reaction mix (with PTP1 and pNPP added immediately before use). The rate of change in A405 is recorded for 60 min. Two wells on each plate contain DMSO controls and two wells contain sodium orthovanadate (1 mM) which inhibits PTP1-catalyzed hydrolysis of pNPP completely. Data are expressed as percent inhibition relative to the average of the DMSO controls measured on the same microtiter plate.

[1] abbreviates: inhibition of pNPP-hydrolysis, compound concentration 1 μM, read-out: % Inhibition.
The mark [2] stands for this setting: inhibition of pNPP-hydrolysis, compound concentration 10 μM, read-out: % Inhibition.
Setting [3] is: inhibition of pNPP-hydrolysis, compound concentration 100 μM, read-out: % Inhibition.
[4] abbreviates: Conc 1 uM, pNPP hydrolysis, Table 1, read-out: PTP1 Inhib % Inhib.
Where [5] appears, read: Conc 10 uM, pNPP hydrolysis, Table 1, read-out: PTP1 Inhib % Inhib.
The mark [6] stands for this setting: Conc 100 uM, pNPP hydrolysis, Table 1, read-out: PTP1 Inhib % Inhib.
Setting [7] is: Conc 1 uM, pNPP hydrolysis, Table 2, read-out: PTP1 Inhib PTP1N. % Inhib.
Where [8] appears, read: Conc 10 uM, pNPP hydrolysis, Table 2, read-out: PTP1 Inhib PTP1N. % Inhib.
[9] abbreviates: Conc 100 uM, pNPP hydrolysis, Table 2, read-out: PTP1 Inhib PTP1N. % Inhib.

Where “and” joins values, the source holds several entries; their conditions need not be identical. Equal values may be shown once. Read-outs that look alike come from different tables or passages of the source.

With `O=C(O)COc1ccc(C[C@H](NC(=O)c2cccnc2)C(=O)NCCCCc2ccccc2)cc1C(=O)O` [Example 154-11, 2-(carboxymethoxy)-5-{(2S)-3-oxo-3-[(4-phenylbutyl)amino]-2-[(3-pyridinylcarbonyl)amino]propyl}benzoic acid], the inhibition at 1 µM under setting [1] came out at 22%. Also, under setting [2], the inhibition at 10 µM was found to be 73%. Under setting [3], the inhibition at 100 µM came to 95%.

With `O=C(O)COc1ccc(C[C@H](NC(=O)c2ccc(Cl)cc2)C(=O)NCCCCc2ccc(Cl)cc2)cc1C(=O)O` [Example 154-20, 2-(carboxymethoxy)-5-((2S)-2-[(4-chlorobenzoyl)amino]-3-{[4-(4-chlorophenyl)butyl]amino}-3-oxopropyl)benzoic acid], under setting [1], the inhibition at 1 µM is 27%. Also, under setting [2], the inhibition at 10 µM amounted to 79%. Besides, under setting [3], the inhibition at 100 µM came to 98%.

Consider `NS(=O)(=O)c1ccc(CCNC(=O)C(Cc2ccc(OC(COO)COO)cc2)NC(=O)CCC(=O)O)cc1` (centres unmarked), for which the inhibition at 1 µM under setting [4] worked out at 4%. Moreover, the inhibition at 10 µM under setting [5] was determined as 19%. For the same compound, under setting [6], the inhibition at 100 µM was found to be 63%.

Take `CCCCCNC(=O)C(Cc1ccc(OS(=O)(=O)O)cc1)NC(=O)CCC(=O)O` (centres unmarked): the inhibition at 1 µM under setting [4] was found to be 3%. Also, the inhibition at 10 µM under setting [5] is 8%. Moreover, the inhibition at 100 µM under setting [6] turned out to be 80%.

Turning to `CCCCCNC(=O)[C@H](Cc1ccc(OC(C(=O)O)C(=O)O)cc1)NC(=O)C1C(C(=O)O)[C@@H]2CC[C@@H]1C2` (some centres unmarked), the inhibition at 1 µM under setting [4] turned out to be 0%. In addition, under setting [5], the inhibition at 10 µM came to 4%. The inhibition at 100 µM under setting [6] stood at 37%.

For `[Na+].[Na+].[Na+].[O]=[V]([O-])([O-])[O-]` [sodium orthovanadate, reference compound], for the setting “1 mM, control wells on each plate”, the “inhibits PTP1-catalyzed hydrolysis of pNPP” value was “completely”.

Consider `CCOC(CNC(=O)[C@H](Cc1ccc(OC(C(=O)O)C(=O)O)cc1)NC(=O)CCC(=O)O)OCC`, for which the inhibition at 1 µM under setting [4] was found to be 0%. Also, the inhibition at 10 µM under setting [5] amounted to 7%. Besides, under setting [6], the inhibition at 100 µM was determined as 46%.

`O=C(O)CCC(=O)N[C@@H](Cc1ccc(OC(C(=O)O)C(=O)O)cc1)C(=O)NCCCN1CCOCC1`: under setting [4], the inhibition at 1 µM is 0%. Moreover, under setting [5], the inhibition at 10 µM came out at 6%. Moreover, the inhibition at 100 µM under setting [6] amounted to 35%.

With `CCCCCNC(=O)[C@H](Cc1ccc(OC(C(=O)O)C(=O)O)cc1)NC(=O)c1ccccc1C(=O)O`, under setting [4], the inhibition at 1 µM amounted to 2%. Further, under setting [5], the inhibition at 10 µM stood at 14%. Moreover, the inhibition at 100 µM under setting [6] was found to be 63%.

As for `CC(C)(C)OC(=O)N[C@@H](Cc1ccccc1)C(=O)N[C@@H](Cc1ccc(OCC(=O)O)c(C(=O)O)c1)C(=O)NCCCO` [Example 157-21, 5-{(2S)-2-({(2S)-2-[(tert-Butoxycarbonyl)amino]-3-phenylpropanoyl}amino)-3-[(3-hydroxypropyl)amino]-3-oxopropyl}-2-(carboxymethoxy)benzoic Acid], under setting [1], the inhibition at 1 µM came to 24%. The inhibition at 10 µM under setting [2] came out at 73%. Also, under setting [3], the inhibition at 100 µM was 95%.

As for `CCCCCNC(=O)[C@H](Cc1ccc(OC(C(=O)O)C(=O)O)cc1)NC(=O)C(CC(=O)O)NC(=O)CCC(=O)O` (some centres unmarked), the inhibition at 1 µM under setting [4] amounted to 27%. In addition, the inhibition at 10 µM under setting [5] came to 75%. Further, the inhibition at 100 µM under setting [6] amounted to 96%.

Regarding `CCCCCNC(=O)C(Cc1ccc(OC(=CCOO)COO)cc1)NC(=O)CCC(=O)O` (centres unmarked), under setting [4], the inhibition at 1 µM turned out to be 0%. Also, the inhibition at 10 µM under setting [5] was 9%. The inhibition at 100 µM under setting [6] amounted to 50%.

Regarding `O=C(O)CCC(=O)N[C@@H](Cc1ccc(OC(C(=O)O)C(=O)O)cc1)C(=O)NCCC(c1ccccc1)c1ccccc1`, under setting [4], the inhibition at 1 µM is 0%. Moreover, the inhibition at 10 µM under setting [5] stood at 3%. In addition, under setting [6], the inhibition at 100 µM is 45%.

As to `CCCCCNC(=O)C(Cc1ccc(OC(COO)COO)cc1)NC(=O)C(Cc1ccc(C(=O)c2ccccc2)cc1)NC(=O)CCC(=O)O` (centres unmarked) [drawing 139], the inhibition at 1 µM under setting [7] stood at 4%. In addition, under setting [8], the inhibition at 10 µM was found to be 13%. Also, under setting [9], the inhibition at 100 µM was determined as 54%.

For `O=C(O)CCC(=O)NC(Cc1ccc(C(=O)c2ccccc2)cc1)C(=O)NCCc1ccc(OC(COO)COO)cc1` (centres unmarked), the inhibition at 1 µM under setting [7] was 1%. Moreover, the inhibition at 10 µM under setting [8] worked out at 13%. Further, the inhibition at 100 µM under setting [9] is 60%.

As for `CCCCCNC(=O)[C@H](Cc1ccc(OC(C(=O)O)C(=O)O)cc1)NC(=O)[C@@H]1CCCC[C@H]1C(=O)O`, the inhibition at 1 µM under setting [4] came to 1%. The inhibition at 10 µM under setting [5] amounted to 20%. Under setting [6], the inhibition at 100 µM is 72%.

Take `CCCCCNC(=O)[C@H](Cc1ccc(OC(C(=O)O)C(=O)O)cc1)NC(=O)C1C2CCC(CC2)C1C(=O)O` (some centres unmarked): the inhibition at 1 µM under setting [4] turned out to be 4%. In addition, the inhibition at 10 µM under setting [5] is 5%. In addition, the inhibition at 100 µM under setting [6] worked out at 41%.

For the compound `CCCCCNC(=O)[C@H](Cc1ccc(OC(C(=O)O)C(=O)O)cc1)NC(=O)COCC(=O)O`, under setting [4], the inhibition at 1 µM was 3%. For the same compound, under setting [5], the inhibition at 10 µM amounted to 12%. Moreover, the inhibition at 100 µM under setting [6] worked out at 53%.

Regarding `CCCCCNC(=O)C(Cc1ccc(OC(COO)COO)cc1)NC(=O)CCC(=O)O` (centres unmarked) [drawing 81], the “PTP1 Inhib % Inhib” value (Conc 1 uM, pNPP hydrolysis, Table 1) is reported as 1%; the “PTP1 Inhib % Inhib” value (Conc 10 uM, pNPP hydrolysis, Table 1) is 25%; the “PTP1 Inhib % Inhib” value (Conc 100 uM, pNPP hydrolysis, Table 1) was 81% and 76%.

Turning to `O=C(O)CCC(=O)N[C@@H](Cc1ccc(OC(C(=O)O)C(=O)O)cc1)C(=O)NCCc1ccc(O)cc1`, the inhibition at 1 µM under setting [4] turned out to be 1%. Besides, the inhibition at 10 µM under setting [5] amounted to 7%. Besides, the inhibition at 100 µM under setting [6] amounted to 43%.

Take `O=C(O)CCC(=O)NC(Cc1ccc(OC(COO)COO)cc1)C(=O)NCCOc1ccccc1` (centres unmarked): the inhibition at 1 µM under setting [4] amounted to 1%. In addition, the inhibition at 10 µM under setting [5] was found to be 13%. Besides, under setting [6], the inhibition at 100 µM was 57%.

Consider `CCCCCNC(=O)C(Cc1ccc(OC(COO)COO)cc1)NC(=O)NCC(=O)NCC(=O)O` (centres unmarked), for which the inhibition at 1 µM under setting [7] stood at 12%. In addition, the inhibition at 10 µM under setting [8] came to 56%. The inhibition at 100 µM under setting [9] worked out at 93%.

Regarding `CCCCCNC(=O)[C@H](Cc1ccc(OC(C(=O)O)C(=O)O)cc1)NC(=O)CCc1ccc(CC(C(=O)O)C(=O)O)cc1`, under setting [4], the inhibition at 1 µM came out at 5%. For the same compound, under setting [5], the inhibition at 10 µM was found to be 29%. In addition, under setting [6], the inhibition at 100 µM is 79%.

As to `CC(C)(C)OC(=O)N[C@@H](Cc1ccccc1)C(=O)N[C@H](Cc1ccc(OCC(=O)O)c(C(=O)O)c1)C(=O)NCCCN1CCCC1=O` [Example 157-12, 5-((2R)-2-({(2S)-2-[(tert-Butoxycarbonyl)amino]-3-phenylpropanoyl}amino)-3-oxo-3-{[3-(2-oxo-1-pyrrolidinyl)propyl]amino}propyl)-2-(carboxymethoxy)benzoic Acid], the inhibition at 1 µM under setting [1] worked out at 27%. Besides, under setting [2], the inhibition at 10 µM amounted to 76%. The inhibition at 100 µM under setting [3] was 95%.

As for `CC(C)(C)OC(=O)N[C@@H](Cc1ccccc1)C(=O)N[C@@H](Cc1ccc(OCC(=O)O)c(C(=O)O)c1)C(=O)NOCCCc1ccccc1` [Example 157-28, 5-{(2S)-2-({(2S)-2-[(tert-Butoxycarbonyl)amino]-3-phenylpropanoyl}amino)-3-oxo-3-[(3-phenylpropoxy)amino]propyl}-2-(carboxymethoxy)benzoic Acid], the Ki (calculated from IC50-values obtained from a dose-response curve using the inhibition assay) was 0.4 µM.

On to `CCCCCNC(=O)C(Cc1ccc(OC(COO)COO)cc1)NC(=O)N(CC(=O)O)Cc1ccc(OCc2ccccc2)cc1` (centres unmarked), for which the inhibition at 1 µM under setting [4] amounted to 5%. Moreover, under setting [5], the inhibition at 10 µM turned out to be 35%. Moreover, the inhibition at 100 µM under setting [6] worked out at 90%.

As for `CCCCCNC(=O)C(Cc1ccc(OC(COO)C(=O)O)cc1)NC(=O)NC(Cc1ccccc1)C(=O)O` (centres unmarked), under setting [7], the inhibition at 1 µM turned out to be 8%. Further, under setting [8], the inhibition at 10 µM turned out to be 57%. Moreover, the inhibition at 100 µM under setting [9] amounted to 93%.

With `CCCCCNC(=O)C(Cc1ccc(OC(COO)COO)cc1)NC(=O)C(Cc1ccc(OCc2ccccc2)cc1)NC(=O)CCC(=O)O` (centres unmarked), under setting [7], the inhibition at 1 µM amounted to 30%. For the same compound, under setting [8], the inhibition at 10 µM is 80%. Moreover, the inhibition at 100 µM under setting [9] is 98%.
